Test results published in patent publication US20240246905A1 (University of Leicester, priority 2021, published 2024).
≈ marks a conversion by molar mass, not a printed value.

Assays:
S. aureus SH1000 cells = assay: Potassium leakage detection; format: cell-based; settings: 60 minutes, MRSA cells
Procedure: The potassium leakage of S. aureus SH1000 cells exposed to compounds was conducted as per previously published methods. Briefly, compounds were incubated with mid-exponential-phase S. aureus SH1000 cells in HEPES buffer (˜10^8 CFU/ml) for 60 minutes. Cells were then removed by centrifugation, and the supernatant was assayed for K^+ efflux by using a Perkin-Elmer 11001B atomic absorption instrument in flame emission mode (wavelength, 766.5 nm; slit, 0.7 nm high; air-acetylene flame). Prior to measurements, the instrument was calibrated using analytical grade potassium standards.

E. coli strain DH5a = assay: MIC with and without outer membrane permeabilisation; format: cell-based; settings: Escherichia coli
Procedure: Antibiotic MIC's were determined by a broth micro-dilution method according to Clinical Standard Laboratory Institute (CSLI) Guidelines (2017). Briefly, 96-well microplates, each containing 195 μL of the 1:2 dilution antibiotic in TSB, were inoculated with 5 μL of overnight cultured bacteria, diluted to give a starting bacterial concentration of 5×10^5 CFU/mL. The optical density of each well inoculated was recorded every 12 minutes over an 18 hour period at 37° C. The data from this was plotted in OriginPro8 (OriginLab) and sigmoidal curves fitted using the dose response function. Fitted values for each curve were used to calculate the MIC.

[1] = tested on: Pseudomonas aeruginosa PA01; assay: Disc diffusion (Kirby-Bauer), zone of inhibition; format: cell-based; settings: 500 μg/mL, '/' = no zone
Procedure, shortened: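 Kirby-Bauer per CLSI 2017: 1 in 200 dilutions of overnight cultures (LB for Gram-negatives, TSB for Gram-positives) spread on Mueller-Hinton agar. Discs loaded with 50 μL antibiotic were added and plates incubated 24 h at 37 °C. Zone of inhibition recorded.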

[2] = Acid stability in 1M acetic acid (NMR, IR); format: physicochemical; settings: 6 hours in 1M acetic acid (pH 2.37)
Procedure: Also, well documented in the literature, is the hydrolysis of isocyanide compounds to their corresponding formamide in acidic conditions. Due to the acidic conditions present in the stomach it was important to identify whether the lead compounds might hydrolyse to their corresponding formamide compounds in-vivo. To determine this, Compound 41 was stirred for 6 hours in 1M acetic acid (pH 2.37), mimicking the length of time oral drugs are present in the stomach. The NMR data obtained after 6 hours was identical to that of compound 41 before the assay (FIG. 18). In addition to the NMR, IR analysis further confirmed the presence of the isocyanide group post treatment with acid, as shown by the sharp signal at approximately 2100 cm^−1.

MRSA 252 = assay: LIVE/DEAD assay (SYTO 9 / propidium iodide); format: cell-based, S. aureus; settings: 4×MIC
Procedure: To attempt to further confirm whether the membrane was indeed targeted by compound 41, a LIVE/DEAD assay was performed, in which MRSA 252 was inoculated with two dyes: SYTO 9 and propidium iodide (PI). Cells with compromised membranes will stain fluorescent red whilst those cells with intact membranes will stain fluorescent green. […] Contrary to this, cells with no antibiotic present stained fluorescent green (FIG. 7).
The LIVE/DEAD BacLight™ bacterial viability kit was purchased from Thermo Fischer Scientific and the assay was performed per manufactures instructions. The kit provides two nucleic acid stains; SYTO-9 and propidium iodide (PI), which allows live bacteria with intact membranes to be distinguished from bacteria with compromised membranes. Single colonies of MRSA 252 were added to individual wells containing Melinex® films and 3 mL TSB and incubated at 37° C. for 18 hours with minimal agitation (70 rpm). The growth media was then exposed to the antibiotics at various concentrations and incubated for 10 hours. The medium was then discarded in each well, washed with PBS before 200 μL of a solution containing both nucleic acid stains was added (50 μL of each component in 10 mL PBS) and left to incubate in the dark for 15 minutes at room temperature. […]

S. aureus AS 68 biofilm = assay: Biofilm eradication, 24 hour old biofilms, crystal violet; format: cell-based
Procedure: The attenuation of biomass by the lead compounds in the 24 hour old biofilms was measured by crystal violet stain assay. […] Further assays were performed to study the biofilm attenuation properties of compound 41. At concentrations, as low as 2 μg/ml (the lowest concentration tested), there was still an 86% reduction of the biofilm depth (FIG. 4).
Eradication: To develop biofilms, 2.5 μL of an overnight culture of bacteria was added to individual wells in a 96-well plate each containing 100 μL TSB supplemented with 0.5% glucose and incubated at 37° C. for 24 hours. Following this, the medium in each well was first discarded and washed once with PBS before set concentrations of antibiotic was added and incubated at 37° C. for a further 18 hours. The medium in each well was then discarded, washed 4× with PBS before 150 μL 1% crystal violet was added and the plate was left to incubate at room temperature for a further 30 minutes. Following incubation, the medium in each well was first discarded before being washed 4× with PBS. 200 μL 7% acetic acid was then added and the wells were measured at OD595.

MRSA 252 biofilms = assay: Biofilm prevention, crystal violet; format: cell-based, S. aureus; settings: 50 μg/mL
Procedure: The potential of the lead compounds to both inhibit S. aureus biofilm growth and to disrupt more established biofilms was next investigated. Since previous studies had determined each compounds MIC against planktonic MRSA bacteria, it was hypothesized that a compound concentration of 50 μg/mL (at or above the MIC of all lead compounds except 2) was a reasonable concentration to begin the study.
Prevention: 100 μL of a mixture of TSB supplemented with 0.5% glucose and antibiotic (1:1) was added to individual wells in 96-well plate. The wells were then inoculated with […] an overnight culture of bacteria and incubated at 37° C. for 24 hours. Following the pre-determined length of time, the medium in each well was discarded, washed twice with PBS before 150 μL of a 1% crystal violet solution was added and the plate was left to incubate at room temperature for a further 30 minutes. Each well was then washed a further 4× with PBS before 200 μL 7% acetic acid was added. The absorbance of each well was then measured at OD595.

| SMILES | dissipation of cellular K+ ions (S. aureus SH1000 cells) | MIC (E. coli strain DH5a; not permeabilised) | MIC (E. coli strain DH5a; outer membrane permeabilised with polymixin B nanopeptides) | zone of inhibition at 500 µg/mL [1] | NMR data after acid exposure [2] | membrane integrity (LIVE/DEAD stain) (MRSA 252) | reduction of the biofilm depth (S. aureus AS 68 biofilm; S. aureus AS 68, 2 μg/ml (the lowest concentration tested)) | attenuation of biomass in 24 hour old biofilms (S. aureus AS 68 biofilm; S. aureus AS 68, 50 μg/mL, crystal violet) | prevention of MRSA 252 biofilm growth (MRSA 252 biofilms) |
| --- | --- | --- | --- | --- | --- | --- | --- | --- | --- |
| [C-]#[N+]/C=C/c1ccc(NC(C)=O)cc1/C=C/c1ccccc1 [Compound 41, N-(4-((E)-2-Isocyanovinyl)-3-((E)-styryl)phenyl)acetamide] | 50% | 280 µg/mL (≈ 971 µM) | 16 µg/mL (≈ 55.5 µM) | 16 mm | identical | significant membrane damage | 86% | significant attenuation in biomass | – |
| [C-]#[N+]C=Cc1ccc(O)cc1 [Compound 2, 4-(2-Isocyanovinyl)phenol] | – | – | – | – | – | – | – | – | entirely prevented biofilm formation |
